Data reported in the supplement of paper PMC10307832.

How the values were obtained:
Experiment in all cases: relative viability (nuclei count vs DMSO), 5 days (fraction); higher = more cells survive
[1] = compound: CC(C)N(CCCNC(=O)Nc1ccc(C(C)(C)C)cc1)C[C@H]1O[C@@H](n2ccc3c(N)ncnc32)[C@H](O)[C@@H]1O + Nc1ncn([C@H]2C[C@H](O)[C@@H](CO)O2)c(=O)n1 [Decitabine] (partner 2 µM)
Summary of the method: (§1)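 Dosing by pin tool came one day after lung cancer cell lines were seeded in 1536-well plates, using either one drug or a fixed anchor-drug dose plus five library-drug doses (not always all listed) in √10 steps. After 5 days, nuclei were counted on 4× images. Relative viability is treated-well nuclei count divided by vehicle-well nuclei count, and values are medians of duplicate plates.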

[2] = compound: CC(C)N(CCCNC(=O)Nc1ccc(C(C)(C)C)cc1)C[C@H]1O[C@@H](n2ccc3c(N)ncnc32)[C@H](O)[C@@H]1O + CC(=O)c1c(C)c2cnc(Nc3ccc(N4CCNCC4)cn3)nc2n(C2CCCC2)c1=O [Palbociclib] (partner 0.5 µM)
Summary of the method: as §1

[3] = compound: CC(C)=CC[C@@H](O)C1=CC(=O)c2c(O)ccc(O)c2C1=O [Shikonin] + C[C@@H](Oc1cc(-c2cnn(C3CCNCC3)c2)cnc1N)c1c(Cl)ccc(F)c1Cl [Crizotinib] (partner 1 µM)
Summary of the method: as §1

[4] = compound: CC(C)=CC[C@@H](O)C1=CC(=O)c2c(O)ccc(O)c2C1=O [Shikonin] + C[C@]1(O)C[C@@H](c2nc(-c3ccc4ccc(-c5ccccc5)nc4c3)c3c(N)nccn32)C1 [Linsitinib] (partner 1 µM)
Summary of the method: as §1

Cell Line	relative viability ([1]; first compound 0.08 µM)	relative viability ([1]; first compound 0.8 µM)	relative viability ([1]; first compound 2.53 µM)	relative viability ([1]; first compound 8 µM)	relative viability ([2]; first compound 0.08 µM)	relative viability ([2]; first compound 0.8 µM)	relative viability ([2]; first compound 2.53 µM)	relative viability ([2]; first compound 8 µM)	relative viability ([3]; first compound 0.1 µM)	relative viability ([3]; first compound 0.3162 µM)	relative viability ([3]; first compound 1 µM)	relative viability ([4]; first compound 0.1 µM)	relative viability ([4]; first compound 0.3162 µM)	relative viability ([4]; first compound 1 µM)	relative viability ([1]; first compound 0.253 µM)	relative viability ([2]; first compound 0.253 µM)	relative viability ([3]; first compound 0.01 µM)	relative viability ([4]; first compound 0.01 µM)
NCI-H1993	0.482	0.564	0.6	0.559	0.616	0.57	0.609	0.65	0.922	0.866	0.93	0.732	0.681	0.672				
NCI-H2009	0.476	0.438	0.39	0.372	0.148	0.184	0.174	0.255	1.2	0.972	0.45	1.25	1.14	0.848	0.418	0.198	1.07	1.23
NCI-H2023	0.256	0.242	0.205	0.191	0.458	0.634	0.338	0.329	0.583	0.667	0.604	0.831	0.687	0.629	0.25	0.312	0.767	0.655
NCI-H2085	0.55	0.561	0.542	0.546	0.47	0.524	0.547	0.481	0.857	0.881	0.585	0.903	0.867	0.865	0.486	0.48	0.874	0.797
NCI-H2087	0.272	0.232	0.336	0.256	0.29	0.276	0.203	0.269	0.781	0.923	0.824	1.3	0.927	0.839	0.303	0.235	1.07	1.27
